According to patent US20040072183A1, “Adhesive protein and uses thereof” (priority 2000, published 2004):

Experiments:
spiggin = conditions: 11-KT treatment; cited from earlier work
spiggin mRNA [1] = assay: Hormone implant dose response analysis of spiggin mRNA in kidney (slot blot, FIG. 3); format: in vivo, three-spined stickleback (Gasterosteus aculeatus); conditions: hormone in silastic capsule implanted in abdominal cavity, one month exposure
Protocol: Hormones at different concentrations were dissolved in […] of coconut oil and placed within silastic capsules (Dow Corning, internal diameter 0.6 mm, outer diameter 1.2 mm, length 5 mm). The sealed capsules were implanted into the abdominal cavity of each fish which were subsequently placed in aquaria containing 200 l of brackish water (0.5% salinity) at 17° C. under a stimulatory photoperiod of L:D 16:8. Following one month exposure the fish were sacrificed and the required organs removed by dissection and stored at −70° C.
[…] total RNA was combined with 90 ml of 20×SSC and 60 ml 37% formaldehyde. The final volume was adjusted to 300 ml with MQ water. Each preparation was transferred onto nylon membrane (Amersham Pharmacia Biotech) using a Minifold II Slot Blot apparatus (Schleicher & Schuell). The RNA was bound onto the membrane by cross-linking in a CL-1000 UV apparatus (UVP). Membranes were radioactively probed as described below (Paragraph 10) and the relative levels of mRNA were determined using a GS-250 Molecular Phosphoimager coupled to the Molecular Analyst (Version 1:41) package (Bio Rad). All dose-response determinations were performed in triplicate and the results were expressed as the mean (±SD) for each hormone and dose assayed. […]

spiggin mRNA [2] = assay: Methyltestosterone induction of spiggin mRNA via water in juvenile fish (slot blot, FIG. 5); format: in vivo, three spined stickleback; conditions: exposure via water, 10 days, whole fish homogenate
Protocol: Juvenile three spined sticklebacks, with a body weight of approximately 100 mg, were exposed to different doses (100 pM, 10 nM and 1 uM) of methyltestosterone or to a combination of 10 nM methyltestosterone and 10 uM flutamide (an antiandrogen). After 10 days the fish were sacrificed. Whole fish were homogenized and spiggin mRNA levels were determined using slot blot analysis.

Compound | Inducibility of spiggin production (spiggin) | Inducibility of spiggin expression in kidney (spiggin mRNA [1]) | Methyltestosterone concentration effective at inducing spiggin mRNA (spiggin mRNA [2])
C[C@]12CC(=O)[C@H]3[C@@H](CCC4=CC(=O)CC[C@@]43C)[C@@H]1CC[C@@H]2O [11-ketotestosterone] | inducible | inducible | 
C[C@]12CCC(=O)C=C1CC[C@@H]1[C@@H]2CC[C@@]2(C)[C@H]1CC[C@]2(C)O [methyltestosterone] |  |  | ≥ 100 pM
